Test results: patent US9884065B2, “Inhibiting activity of senescent cells using a glucocorticoid” (Buck Institute for Research on Aging, priority 2011, dated 2018)
“Also recorded” adds a separate entry of the source.

Experiments:
B16 mouse melanoma cells [1] = assay: B16 melanoma tail-vein injection in irradiated p16-3MR mice (primary tumors and metastases, fLUC bioluminescence); assay type: in vivo
Protocol: Briefly, 10^6 B16 mouse melanoma cells, a highly aggressive cell line that is syngeneic with p16-3MR transgenic mice (C57B16 background), that express firefly luciferase (fLUC, to enable their detection by bioluminescence) were injected into the tail vein of the p16-3MR transgenic mice approximately three months after being either mock irradiated or irradiated, as described in Example 2. Irradiated mice were treated daily with GCV (25 mg/kg) or vehicle only for 7 days, and then 3 days following the last GCV dose, B16 mouse melanoma cells were injected into the mice. B16 mouse melanoma cells first colonize the lung, where they form primary tumors approximately two weeks after injection, and thereafter metastasize to distal tissues to form secondary tumors in, for example, the pancreas, liver and visceral fat. The bioluminescence markers, fLUC and rLUC are distinguishable because the enzymes use different substrates.

senescent cells [2] = assay: Detection and clearance of senescent cells in irradiated p16-3MR transgenic mice (rLUC bioluminescence, SASP biomarker RNA); assay type: in vivo, mouse
Protocol: Briefly, a group of p16-3MR transgenic mice were exposed to whole body ionizing radiation (7 Gy X-ray) and a control group of p16-3MR transgenic mice were mock-irradiated. After three months, the mice were treated with GCV (25 mg/kg) or vehicle only, and then at least two weeks later bioluminescence in tissues was examined after administering the rLUC substrate.

B16 mouse melanoma cells [3] = assay: Subcutaneous B16 melanoma in doxorubicin-treated p16-3MR mice; assay type: in vivo; settings: for p16INK4a and mRFP expression in skin biopsies / tumor diameters: doxorubicin 10 mg/kg with or without GCV; for tumor diameters / growth/size of subcutaneous B16 melanoma tumors: 12 days after B16 injection; for growth/size of subcutaneous B16 melanoma tumors: doxorubicin 10 mg/kg, GCV 25 mg/kg daily for 7 days starting 7 days later
Protocol: Briefly, p16-3MR transgenic mice were treated with vehicle (ctrl) or 10 mg/kg doxorubicin. Seven days after doxorubicin treatment, mice were treated daily with GCV (25 mg/kg) for 7 days or vehicle only. 3 days after the last GCV treatment, 4×10^5 B16 mouse melanoma cells were injected subcutaneously into the p16-3MR transgenic mice, and mice were sacrificed after 12 days for analysis.

HCA2 human fibroblasts = settings: 2.5 μM, 48 hours
Protocol: (§1) The initial drug screen was performed in a 96-well format using automated liquid handling with a Biomek FX (Beckman Coulter, CA). Senescent cells were plated 24 hours after X-irradiation at 7,500 cells per well in 96-well plates. Six days after plating the senescent cells, the pre-senescent cells were plated at 7,500 cells per well in 96-well plates. Twenty-four hours after pre-senescent plating, both pre-senescent and senescent cells were washed and incubated in low (0.2%) serum for 48 hours to arrest cell proliferation of the pre-senescent cells. Drugs from the Prestwick Chemical Library, which contains 1120 bio-available compounds in DMSO, were given to the cells at 2.5 μM in media containing 0.2% serum. Forty-eight hours after compound addition, the medium in each well was removed and frozen for assay by ELISA to quantitate the levels of IL-6. The cells, which remained in the wells after the medium was removed, were lysed and ATP levels were measured (ATPlite 1-step assay, Perkin Elmer, MA) to exclude compounds that lowered IL-6 through toxicity (cell death). Experimental wells in each plate were normalized to plate mean or same-plate DMSO controls for the ELISA and ATP assays, respectively.
To identify small molecules that may be potential SASP modulators, a screening strategy that entailed administering compounds to parallel 96-well plates containing human fibroblasts (strain HCA2) that were either quiescent or senescent was developed. The compounds tested comprised the Prestwick Chemical Library, a collection of approximately 1,120 Federal Drug Administration-approved drugs. The compounds were added to duplicate wells at a single concentration (2.5 μM). After 48 hours, the medium from each well was removed, and the cells were lysed. […] Cell lysates were assayed for ATP as a surrogate for cell number.

IL-6 [4] = assay: Initial drug screen (Prestwick Chemical Library), IL-6 ELISA of medium; assay type: cell-based, human; settings: 2.5 μM, 48 hours, HCA2 fibroblasts, 0.2% serum
Protocol: as §1, with “Drugs from the Prestwick Chemical Library, which contains 1120 bio-available compounds in DMSO, were given to the cells at 2.5 μM in media containing 0.2% serum.” left out
To identify small molecules that may be potential SASP modulators, a screening strategy that entailed administering compounds to parallel 96-well plates containing human fibroblasts (strain HCA2) that were either quiescent or senescent was developed. […] After 48 hours, the medium from each well was removed, and the cells were lysed. […] Cell lysates were assayed for ATP as a surrogate for cell number.

senescent cells [5] = assay: Doxorubicin-induced senescent cells in tissues of p16-3MR mice (mRFP and p16INK4a mRNA); assay type: in vivo, mouse; settings: doxorubicin 10 mg/kg vs untreated control mice
Excerpt: Similar results were observed when the senescent cell accumulation was induced with the chemotherapeutic agent, doxorubicin. […] Various tissues were isolated (liver, heart, lung, kidney, and spleen) and measured for abundance of mRNAs encoding mRFP and p16INK4a as markers for senescent cells (see FIGS. 5A and 5B, respectively).

IL-6 [6] = assay: IL-6 ELISA of conditioned media from X-irradiated senescent HCA2 fibroblasts; assay type: cell-based, human; settings: 50 nM corticosterone or 100 nM cortisol; rIL-1α given six days after irradiation, 24 hours
Protocol: To validate glucocorticoids as SASP regulators, they were added within 15 min after irradiation (unless otherwise indicated). For cells induced to senesce by MKK6 or RAS overexpression, glucocorticoid treatment started 16 hours after infection. Glucocorticoids were re-added in fresh media every other day. Six days after irradiation or selection, cells were given serum-free DMEM with or without glucocorticoid for 24 hours; the conditioned media were collected and frozen for ELISAs.
Conditioned media were filtered and stored at −80° C. Cell numbers were determined in every experiment. ELISAs were performed using kits and procedures from PerkinElmer (IL-6 AL223F). Data were normalized and expressed as pg/ml/cell/24 h.
To confirm the ability of corticosterone to suppress senescence-associated IL-6 secretion, fresh HCA2 fibroblast cultures were prepared, and senescence was induced by X-irradiation (10 Gy). Under these conditions, cells undergo growth arrest within 24-48 hours, but require 4-5 days before SASP components are detected in the medium (Coppe et al., 2008, PLoS Biol. 6:2853-2868; Rodier et al., 2009, Nature Cell Biol. 11:973-979; Coppe et al., 2010, PLoS ONE 5:e9188; Freund et al., 2011, EMBO J. 30:1536-1548). Varying concentrations of corticosterone were added immediately after irradiation, and the cells were maintained in the drug for 6 days. On the 6th day, the cells were incubated in serum-free medium with or without corticosterone, the conditioned medium was collected 24 h later, and the medium was assayed for IL-6 by ELISA. […] The ability of corticosterone to suppress IL-6 secretion by senescent cells was not peculiar to HCA2 cells.

NF-κB = NF-κB reporter-luciferase transactivation assay; assay type: cell-based, human; settings: 0.5 μM RU-486 or 2.5 ng mL^−1 IL-1α
Protocol: Nuclear extracts were prepared using the nuclear extract kit (Active Motif), and NF-κB DNA binding was determined using the TransAM NF-κB p65 kit (Active Motif). For transactivation assays, cells infected with the NF-κB reporter-luciferase lentivirus were lysed in buffer (Promega), and luciferase activity was normalized to cell number, as described (Freund et al., 2011, EMBO J. 30:1536-1548).

[7] = irradiated + GCV, eighteen days after injection

For Nc1nc(O)c2ncn(COC(CO)CO)c2n1 [GCV, ganciclovir], the “metastatic B16 melanoma cells, Fat (estimated % of total area of fat)” value (B16 mouse melanoma cells [1]; 18 days after injection) was 25%, the “metastatic B16 melanoma cells, Liver” value (B16 mouse melanoma cells [1]; 18 days after injection) was 7 ± 3.6 nodules and the “metastatic B16 melanoma cells, Lung (luminescent nodules)” value (B16 mouse melanoma cells [1]; 18 days after injection, TNTC = too numerous to count) was “TNTC”. For the same compound, the “B16 cells as detected by luminescence” value (B16 mouse melanoma cells [1]; irradiated + GCV, day 18) was “still showed relatively low levels of B16 cells”, the “metastases in distal organs (liver, fat)” value (B16 mouse melanoma cells [1]; [7]) was “almost devoid of metastases” and the primary lung tumors (B16 mouse melanoma cells [1]; [7]) was “large primary lung tumors were evident”. The “B16 cells as detected by luminescence” value (B16 mouse melanoma cells [1]; irradiated + GCV, fifteen days after injection) was “relatively low levels of B16 cells”, the “primary tumors and metastases” value (B16 mouse melanoma cells [1]; irradiated mice, GCV 25 mg/kg daily for 7 days, 15 days after B16 injection) was “much smaller primary tumors and many fewer metastases” and the “rLUC expression levels (bioluminescence in tissues)” value (senescent cells [2]; irradiated (7 Gy) p16-3MR mice, GCV 25 mg/kg three months after irradiation, lung tissue shown) was “comparable to unirradiated mice”. The “p16INK4a (p16), IL-6, MMP-3 and mRFP RNA expression levels” value (senescent cells [2]; irradiated p16-3MR mice treated with GCV) was “returned p16INK4a (p16), IL-6, MMP-3 and mRFP expression levels to those found in the unirradiated control mice”, the “p16INK4a and mRFP expression in skin biopsies” value (B16 mouse melanoma cells [3]) was “low levels of p16INK4a and mRFP expression” and the tumor diameters (B16 mouse melanoma cells [3]) was “smaller tumor sizes”. For the same compound, the “growth/size of subcutaneous B16 melanoma tumors” value (B16 mouse melanoma cells [3]) was “substantially reduced the size of B16 melanoma tumors; also recorded: much smaller primary tumors”.
With C[C@]12CC[C@@H](O)C[C@@H]1CC[C@@H]1[C@@H]2CC[C@]2(C)C(=O)CC[C@@H]12 [androsterone] the ATP levels (HCA2 human fibroblasts) was “without altering ATP levels” and the “IL-6 secretion (ELISA)” value (IL-6 [4]) was “suppressed IL-6 secretion”.
With C/C(=C(\CCOP(=O)(O)O)SC(=O)c1ccccc1)N(C=O)Cc1cnc(C)nc1N [benfotiamine] the ATP levels (HCA2 human fibroblasts) was “without altering ATP levels” and the “IL-6 secretion (ELISA)” value (IL-6 [4]) was “suppressed IL-6 secretion”.
For CCCNC(=O)NS(=O)(=O)c1ccc(Cl)cc1 [chlorpropamide], the ATP levels (HCA2 human fibroblasts) was “without altering ATP levels” and the “IL-6 secretion (ELISA)” value (IL-6 [4]) was “suppressed IL-6 secretion”.
In the case of COc1cccc2c1C(=O)c1c(O)c3c(c(O)c1C2=O)C[C@@](O)(C(=O)CO)C[C@@H]3O[C@H]1C[C@H](N)[C@H](O)[C@H](C)O1 [doxorubicin], the “p16INK4a and mRFP expression in skin biopsies” value (B16 mouse melanoma cells [3]) is reported as “increased senescence”, the tumor diameters (B16 mouse melanoma cells [3]) is reported as “increased tumor sizes” and the “growth/size of subcutaneous B16 melanoma tumors” value (B16 mouse melanoma cells [3]) is reported as “stimulated the growth of B16 melanoma cells; also recorded: Tumor growth was increased”. The “mRFP and p16INK4a mRNA in liver, heart, lung, kidney, spleen” value (senescent cells [5]) was “higher levels of mRFP and p16INK4a in all tissues”.
C[C@]12CC[C@@H]3c4ccc(O)cc4CC[C@H]3[C@@H]1CC[C@@H]2O [estradiol-17-beta] was tested, and the “IL-6 secretion (ELISA)” value (IL-6 [4]) was “suppressed IL-6 secretion”.
In the case of CC(C)(C)NC(=O)[C@H]1CC[C@H]2[C@@H]3CC[C@H]4NC(=O)C=C[C@]4(C)[C@H]3CC[C@]12C [finasteride], the ATP levels (HCA2 human fibroblasts) is reported as “without altering ATP levels” and the “IL-6 secretion (ELISA)” value (IL-6 [4]) is reported as “suppressed IL-6 secretion”.
In the case of Cc1ccc(S(=O)(=O)NC(=O)NN2CC3CCCC3C2)cc1 (stereo not drawn) [gliclazide], the ATP levels (HCA2 human fibroblasts) is reported as “without altering ATP levels” and the “IL-6 secretion (ELISA)” value (IL-6 [4]) is reported as “suppressed IL-6 secretion”.
Nc1cc(N2CCCCC2)nc(N)[n+]1[O-] [minoxidil] was tested, and the ATP levels (HCA2 human fibroblasts) was “without altering ATP levels”.
With C#C[C@]1(O)CC[C@H]2[C@@H]3CCC4=CC(=O)CC[C@@H]4[C@H]3CC[C@@]21CC [norgestrel-(−)-D] the “IL-6 secretion (ELISA)” value (IL-6 [4]) was “suppressed IL-6 secretion”.
C[C@]12C=CC(=O)C=C1CC[C@@H]1[C@@H]2C(=O)C[C@@]2(C)[C@H]1CC[C@]2(O)C(=O)CO [prednisone] was tested, and the ATP levels (HCA2 human fibroblasts) was “without altering ATP levels” and the “IL-6 secretion (ELISA)” value (IL-6 [4]) was “suppressed IL-6 secretion”.
With Cc1ccc(S(=O)(=O)NC(=O)NN2CCCCCC2)cc1 [tolazamide] the ATP levels (HCA2 human fibroblasts) was “without altering ATP levels” and the “IL-6 secretion (ELISA)” value (IL-6 [4]) was “suppressed IL-6 secretion”.
With “Recombinant IL-1α: recombinant IL-1α protein added to glucocorticoid-treated senescent cells” the “IL-6 secretion suppressed by corticosterone and cortisol, added recombinant IL-1α” value (IL-6 [6]) was “rescued the suppression of IL-6 secretion” and the “NF-κB transactivation activity, co-treatment with either glucocorticoid” value (NF-κB) was “rescued NF-κB transactivation activity”.
